Experimental findings from ChEMBL document CHEMBL1201862, “PubChem BioAssay data set” (2004) are described below.

Test systems include ACHN; BT-549; EKVX; HCT-116; HCT-15; HOP-62; HOP-92; NCI-H23; NCI-H522; NCI/ADR-RES; OVCAR-8; SF-268; SF-539; SK-MEL-28; SN12C; SNB-19; SNB-75; SW-620; M14.
Assay in all cases: growth of human tumour cells (NCI), 48 h

Molecules are shown by their SMILES.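 Grown in 96-well plates, cells were treated for 48 hours with each compound at five concentrations. Insufficient inhibition: endpoint recorded as highest concentration tested. At the GI50, growth is halved.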 Calls of active or inactive are those of the source. Rule as the data show it: active = GI50 up to about 1.1 µM and inactive = higher. Some results are limits rather than exact numbers.

In the case of `CC1OC(OC2C(OC3CCC4(C)C(CCC5(C)C4CC=C4C6CC(C)(C)CCC6(C(=O)O)CCC45C)C3(C)CO)OCC(O)C2O)C(O)C(O)C1O` (stereo not given), the GI50 in the experiment on ACHN is 19 µM (inactive); in the experiment with BT-549 it was 16.7 µM (inactive); in the experiment on EKVX it was 20.4 µM (inactive); with HCT-116 it was 7.4 µM (inactive); with HCT-15, 20.9 µM; in the experiment with HOP-62, 29.6 µM (inactive). Besides, the GI50 with HOP-92 is 10.1 µM (inactive); in the experiment with NCI-H23, 17.7 µM (inactive); in the experiment on NCI-H522, 13.3 µM (inactive); in the experiment with NCI/ADR-RES it was 20.9 µM (inactive); in the experiment on OVCAR-8, 20.3 µM (inactive); with SF-268, 17.1 µM (inactive). Further, the GI50 in the experiment with SF-539 was 15.5 µM (inactive); in the experiment on SK-MEL-28, 6.37 µM (inactive); with SN12C it was 21.1 µM (inactive); in the experiment on SNB-19 it was 15.8 µM (inactive); in the experiment on SNB-75 it was 14.2 µM (inactive); in the experiment on SW-620 it was 11.7 µM (inactive).
As to `C/C(=N\N=C(N)N)c1c(C(=O)OCCCCCCOC(=O)c2nc3sccn3c2/C(C)=N/N=C(N)N)nc2sccn12`, the GI50 in the experiment with ACHN was > 100 µM (inactive); in the experiment with BT-549, > 100 µM (inactive); in the experiment with EKVX it was > 100 µM (inactive); in the experiment with HCT-116, > 100 µM (inactive); in the experiment with HCT-15 it was more than 100 µM; in the experiment with HOP-92, > 100 µM (inactive). Besides, the GI50 in the experiment on M14 is > 100 µM (inactive); in the experiment with NCI-H23, 46.1 µM (inactive); with NCI-H522, > 100 µM (inactive); with NCI/ADR-RES, > 100 µM (inactive); in the experiment with OVCAR-8, 42.9 µM (inactive); with SF-268 it was 49.1 µM (inactive). Besides, the GI50 in the experiment with SK-MEL-28 is > 100 µM (inactive); in the experiment with SN12C, > 100 µM (inactive); in the experiment with SNB-19 it was 63.8 µM (inactive); with SNB-75, 44.7 µM (inactive); with SW-620, > 100 µM (inactive).
With `Cc1ccc(/N=N/c2c(C)nn(C(=O)CC(=O)Nc3ccc(Cl)cc3)c2C)cc1C`, the GI50 was 5.79 µM (inactive) in the experiment with ACHN; > 100 µM (inactive) with BT-549; 28.2 µM (inactive) with EKVX; 49.2 µM (inactive) with HCT-116; 34 µM (inactive) with HOP-62; 12.4 µM (inactive) with HOP-92. The GI50 in the experiment on M14 is > 100 µM (inactive); in the experiment with NCI-H23, > 100 µM (inactive); with NCI-H522 it was 32.2 µM (inactive); in the experiment on NCI/ADR-RES, > 100 µM (inactive); in the experiment on OVCAR-8, 32.9 µM (inactive); with SF-268 it was 37.2 µM (inactive). Besides, the GI50 was 26 µM (inactive) in the experiment with SF-539; > 100 µM (inactive) in the experiment with SK-MEL-28; > 100 µM (inactive) in the experiment on SN12C; 15.5 µM (inactive) in the experiment on SNB-19; 21 µM (inactive) in the experiment with SNB-75; > 100 µM (inactive) with SW-620.
With `Oc1ccccc1C(Sc1nc2ccccc2s1)Sc1nc2ccccc2s1`, the GI50 is > 100 µM (inactive) in the experiment with ACHN; 56.4 µM (inactive) with BT-549; 23.4 µM (inactive) in the experiment on EKVX; > 100 µM (inactive) in the experiment on HCT-116; 51.3 µM in the experiment on HCT-15; > 100 µM (inactive) in the experiment on HOP-62. Moreover, the GI50 is 22.8 µM (inactive) with HOP-92; > 100 µM (inactive) with M14; 58.7 µM (inactive) with NCI-H23; 17.6 µM (inactive) in the experiment on NCI-H522; 57.8 µM (inactive) with NCI/ADR-RES; 85.3 µM (inactive) with OVCAR-8. Also, the GI50 with SF-268 is 71.6 µM (inactive); in the experiment on SK-MEL-28, > 100 µM (inactive); in the experiment on SN12C, > 100 µM (inactive); in the experiment on SNB-19, 64.6 µM (inactive); in the experiment with SNB-75, > 100 µM (inactive); in the experiment with SW-620 it was > 100 µM (inactive).
On to `Nn1c(Nc2ccc(S(=O)(=O)Nc3ncccn3)cc2)nnc(/C=C/c2c(O)ccc3ccccc23)c1=O`, for which the GI50 is 25.8 µM (inactive) in the experiment on ACHN; 22.3 µM (inactive) with BT-549; 24.2 µM (inactive) in the experiment with EKVX; 21.1 µM (inactive) in the experiment on HCT-116; 27.3 µM in the experiment on HCT-15; 33.6 µM (inactive) with HOP-62. Also, the GI50 was 66.2 µM (inactive) in the experiment on HOP-92; 29 µM (inactive) in the experiment on M14; 19.8 µM (inactive) in the experiment with NCI-H23; 34.3 µM (inactive) in the experiment with NCI-H522; 32.7 µM (inactive) in the experiment on NCI/ADR-RES; 34.6 µM (inactive) in the experiment on OVCAR-8. Further, the GI50 in the experiment with SF-268 was 31.6 µM (inactive); in the experiment on SN12C, 28.3 µM (inactive); with SNB-19 it was 46.9 µM (inactive); in the experiment with SNB-75, 22.2 µM (inactive); with SW-620 it was 31.8 µM (inactive).
Regarding `COC(=O)C(CCCCN)NC(=O)C(CCCCN)NC(C)=O.Cc1ccc(C(=O)Nc2ccc(S(=O)(=O)O)c3cc(S(=O)(=O)O)cc(S(=O)(=O)O)c23)cc1NC(=O)c1cccc(NC(=O)Nc2cccc(C(=O)Nc3cc(C(=O)Nc4ccc(S(=O)(=O)O)c5cc(S(=O)(=O)O)cc(S(=O)(=O)O)c45)ccc3C)c2)c1`, the GI50 in the experiment on ACHN was > 50 µM (inactive); in the experiment on BT-549 it was > 50 µM (inactive); in the experiment on EKVX it was > 50 µM (inactive); in the experiment with HCT-116, > 50 µM (inactive); with HCT-15, more than 50 µM; in the experiment with HOP-92, > 50 µM (inactive). For the same compound, the GI50 with M14 was 10.6 µM (inactive); in the experiment with NCI-H23 it was > 50 µM (inactive); in the experiment on NCI-H522, > 50 µM (inactive); in the experiment with NCI/ADR-RES it was > 50 µM (inactive); in the experiment on OVCAR-8 it was > 50 µM (inactive); in the experiment on SF-268, > 50 µM (inactive). Further, the GI50 in the experiment on SF-539 was > 50 µM (inactive); in the experiment with SK-MEL-28, > 50 µM (inactive); with SN12C, > 50 µM (inactive); in the experiment with SNB-19 it was > 50 µM (inactive); with SNB-75, 7.59 µM (inactive); in the experiment with SW-620, > 50 µM (inactive).
In the case of `Cc1ccc2c3c1O[C@H]1c4nc5ccccc5cc4C[C@@]4(O)[C@@H](C2)N(CC2CC2)CC[C@]314`, the GI50 in the experiment with ACHN was 10.4 µM (inactive); with BT-549, 11.2 µM (inactive); in the experiment with EKVX, 15.1 µM (inactive); in the experiment with HCT-116, 4.54 µM (inactive); with HCT-15, 0.873 µM; with HOP-62 it was 12.1 µM (inactive). Moreover, the GI50 in the experiment with HOP-92 was 19.9 µM (inactive); with M14, 12.5 µM (inactive); with NCI-H23, 20.6 µM (inactive); with NCI-H522, 13.7 µM (inactive); in the experiment with NCI/ADR-RES, 6.44 µM (inactive); with OVCAR-8 it was 10.7 µM (inactive). The GI50 is 7.03 µM (inactive) with SF-268; 4.68 µM (inactive) with SF-539; 19.6 µM (inactive) in the experiment with SK-MEL-28; 28.6 µM (inactive) in the experiment with SN12C; 12.8 µM (inactive) in the experiment on SNB-19; 4.29 µM (inactive) in the experiment on SW-620.
Consider `Cc1ccc2c(sc(-c3ccc4c(c3)sc(-c3ccc(N(C)C)cc3)[n+]4C)[n+]2C)c1S(=O)(=O)O.Cc1ccc2c(sc(-c3ccc4c(c3)sc(-c3ccc5c(c3)sc(-c3ccc(N(C)C)cc3)[n+]5C)[n+]4C)[n+]2C)c1S(=O)(=O)O`, for which the GI50 was 62.7 µM (inactive) with ACHN; 30.8 µM (inactive) with BT-549; 76 µM (inactive) with EKVX; > 100 µM (inactive) in the experiment on HCT-116; 66.1 µM in the experiment with HCT-15; > 100 µM (inactive) in the experiment with HOP-92. In addition, the GI50 in the experiment with M14 was > 100 µM (inactive); in the experiment with NCI-H23, > 100 µM (inactive); with NCI-H522, 30.4 µM (inactive); with NCI/ADR-RES, > 100 µM (inactive); with OVCAR-8, > 100 µM (inactive); in the experiment with SF-268, > 100 µM (inactive). The GI50 with SF-539, in the experiment on SK-MEL-28, in the experiment on SN12C, with SNB-19, with SNB-75 and with SW-620 was > 100 µM (inactive) each time.
For the compound `CC(NC(=O)c1ccccc1)NC(=O)C(C)C(=O)Nc1ccccc1` (stereo not given), the GI50 is > 100 µM (inactive) in the experiment on ACHN; > 100 µM (inactive) in the experiment on BT-549; > 100 µM (inactive) in the experiment on EKVX; > 100 µM (inactive) in the experiment with HCT-116; more than 100 µM in the experiment on HCT-15; 49.1 µM (inactive) with HOP-92. The GI50 with M14 was > 100 µM (inactive); with NCI-H23, > 100 µM (inactive); with NCI-H522 it was > 100 µM (inactive); in the experiment on NCI/ADR-RES it was > 100 µM (inactive); in the experiment with OVCAR-8, 94.6 µM (inactive); in the experiment on SF-268, 62.2 µM (inactive). Moreover, the GI50 was > 100 µM (inactive) in the experiment on SF-539; > 100 µM (inactive) in the experiment on SN12C; 27.4 µM (inactive) in the experiment with SNB-19; 33.3 µM (inactive) in the experiment on SNB-75; > 100 µM (inactive) in the experiment on SW-620.
As for `Cc1ccc(S(=O)(=O)N/N=C2/C3CC4CCC2C4C3)cc1` (stereo not given), the GI50 was > 100 µM (inactive) with ACHN; > 100 µM (inactive) in the experiment with BT-549; > 100 µM (inactive) in the experiment with EKVX; > 100 µM (inactive) in the experiment on HCT-116; more than 100 µM in the experiment with HCT-15; > 100 µM (inactive) with HOP-62. The GI50 with HOP-92, in the experiment with M14, with NCI-H23, in the experiment on NCI-H522, in the experiment with NCI/ADR-RES and in the experiment with OVCAR-8 was > 100 µM (inactive) throughout. Besides, the GI50 in the experiment on SF-268, in the experiment on SF-539, with SK-MEL-28, with SN12C, with SNB-75 and with SW-620 was > 100 µM (inactive) in each case.
For `C=CCOc1ccc(C(/N=N\c2ccc(Cl)cc2)=N/NC(=O)c2ccccc2)cc1OC`, the GI50 was 89.1 µM (inactive) with ACHN; 20.4 µM (inactive) with BT-549; > 100 µM (inactive) with EKVX; 64.4 µM (inactive) in the experiment on HCT-116; 80.7 µM with HCT-15; > 100 µM (inactive) with HOP-62. Besides, the GI50 with HOP-92 was 32.1 µM (inactive); in the experiment with M14, 73.5 µM (inactive); in the experiment on NCI-H23, 60 µM (inactive); with NCI-H522, 41.3 µM (inactive); in the experiment with NCI/ADR-RES, 72.4 µM (inactive); in the experiment on OVCAR-8, 37.5 µM (inactive). Further, the GI50 in the experiment on SF-268 is > 100 µM (inactive); with SK-MEL-28 it was 19 µM (inactive); with SN12C it was 50.5 µM (inactive); in the experiment with SNB-19, > 100 µM (inactive); with SNB-75, 60.3 µM (inactive); with SW-620 it was > 100 µM (inactive).
